Source: patent publication US9545105B2, “1-(heterocyclic carbonyl) piperidines” (BAYER INTELLECTUAL PROPERTY GMBH, priority 2010, dated 2017)

test system: not listed separately; assay: log P by HPLC on reversed-phase column (C 18), EEC Directive 79/831 Annex V.A8; assay type: physicochemical; details: HPLC on reversed-phase column (C 18); 40° C.; 0.1% aqueous formic acid and acetonitrile; linear gradient 10% to 90% acetonitrile
How it was run: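 Reversed-phase C18 HPLC at 40° C with a linear 10% to 90% acetonitrile gradient against 0.1% aqueous formic acid. Log P is read from retention time by linear interpolation between successive unbranched alkan-2-ones (C3–C16) of known log P. UV spectra from 200 to 400 nm, taken at chromatographic peak maxima, give lambda-max.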

Compound	logP
Cc1nn(C)c(F)c1C(=O)N1CCCCC1c1cc(Cl)ccc1Cl (centres unmarked) [Example 83]	3.29
Cc1nn(C)c(F)c1C(=O)N1CCCCC1c1ccc(Cl)cc1Cl (centres unmarked) [Example 76]	3.39
Cc1nn(C)c(F)c1C(=O)N1CCCCC1c1cccc(Cl)c1 (centres unmarked) [Example 44]	2.94
CCc1nn(C)c(F)c1C(=O)N1CCCCC1c1ccccc1Cl (centres unmarked) [Example 37]	3.19
Cc1nn(C)c(F)c1C(=O)N1CCCCC1c1ccc(Cl)cc1 (centres unmarked) [Example 51]	2.98
Cn1nc(C(F)F)c(C(=S)N2CCCCC2c2cccc(Cl)c2)c1F (centres unmarked) [Example 49]	4.06

Continued, values first:

logP	Compound
2.99	Cc1nn(C)c(F)c1C(=O)N1CCCCC1c1ccccc1Br (centres unmarked) [Example 88]
3.25	CCc1nn(C)c(F)c1C(=O)N1CCCCC1CCc1ccccc1 (centres unmarked) [Example 176]
4.95	CCC(c1ccccc1Cl)C1CCCCN1C(=S)c1c(C(F)F)nn(C)c1F (centres unmarked) [Example 165]
3.25	CCc1nn(C)c(F)c1C(=O)N1CCCCC1c1ccccc1Br (centres unmarked) [Example 87]
3.96	Cc1cc(C(=O)N2CCCCC2c2ccccc2Br)c(C)o1 (centres unmarked) [Example 86]

test system: Sphaerotheca fuliginea; assay: In vivo preventive test on Sphaerotheca fuliginea (cucumber); details: 500 ppm of active ingredient, evaluated 7 days after inoculation
Description: Solvent: 49 parts by weight of N,N-dimethylformamide Emulsifier: 1 part by weight of Alkylarylpolyglycolether To produce a suitable preparation of active compound, 1 part by weight of active compound is mixed with the stated amounts of solvent and emulsifier, and the concentrate is diluted with water to the desired concentration. To test for preventive activity, young plants are sprayed with the preparation of active compound at the stated rate of application. One day after this treatment, the plants are inoculated with an aqueous spore suspension of Sphaerotheca fuliginea. Then the plants are placed in a greenhouse at approximately 23° C. and a relative atmospheric humidity of approximately 70%. The test is evaluated 7 days after the inoculation. 0% means an efficacy which corresponds to that of the untreated control, while an efficacy of 100% means that no disease is observed.

Compound	Efficacy [%]
Cc1nn(C)c(F)c1C(=O)N1CCCCC1c1ccccc1Br (centres unmarked) [Example 88]	94
Cc1nn(C)c(F)c1C(=O)N1CCCCC1c1cc(Cl)ccc1Cl (centres unmarked) [Example 83]	94
CCC(c1ccccc1Cl)C1CCCCN1C(=S)c1c(C(F)F)nn(C)c1F (centres unmarked) [Example 165]	100
Cc1nn(C)c(F)c1C(=O)N1CCCCC1c1cccc(Cl)c1 (centres unmarked) [Example 44]	89
CCc1nn(C)c(F)c1C(=O)N1CCCCC1c1ccccc1Cl (centres unmarked) [Example 37]	70
Cn1nc(C(F)F)c(C(=S)N2CCCCC2c2cccc(Cl)c2)c1F (centres unmarked) [Example 49]	98

test system: Venturia inaequalis; assay: In vivo preventive test on Venturia inaequalis (apple scab); details: 100 ppm of active ingredient, evaluated 10 days after inoculation
Description: (§1) Solvent: 24.5 parts by weight of acetone • 24.5 parts by weight of N,N-dimethylacetamide Emulsifier: 1 part by weight of alkylaryl polyglycol ether To produce a suitable preparation of active compound, 1 part by weight of active compound is mixed with the stated amounts of solvent and emulsifier, and the concentrate is diluted with water to the desired concentration. To test for preventive activity, young plants are sprayed with the preparation of active compound at the stated rate of application. After the spray coating has dried on, the plants are inoculated with an aqueous conidia suspension of the causal agent of apple scab (Venturia inaequalis) and then remain for 1 day in an incubation cabinet at approximately 20° C. and a relative atmospheric humidity of 100%. The plants are then placed in a greenhouse at approximately 21° C. and a relative atmospheric humidity of approximately 90%. The test is evaluated 10 days after the inoculation. 0% means an efficacy which corresponds to that of the untreated control, while an efficacy of 100% means that no disease is observed.

Compound	Efficacy [%]
CCC(c1ccccc1Cl)C1CCCCN1C(=S)c1c(C(F)F)nn(C)c1F (centres unmarked) [Example 165]	99

test system: Pyrenophora teres; assay: In vivo preventive test on Pyrenophora teres (barley); details: 500 ppm of active ingredient, evaluated 7-9 days after inoculation
How it was run: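 Young barley plants sprayed with compound in DMF/alkylaryl polyglycol ether emulsion; inoculated with P. teres spores one day later. 48 h at 22 °C, 100% humidity, then greenhouse ~20 °C, ~80% humidity; efficacy scored 7-9 days post-inoculation, 0% = untreated, 100% = no disease.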

Compound	Efficacy [%]
Cc1nn(C)c(F)c1C(=O)N1CCCCC1c1ccccc1Br (centres unmarked) [Example 88]	95
Cc1nn(C)c(F)c1C(=O)N1CCCCC1c1cc(Cl)ccc1Cl (centres unmarked) [Example 83]	100
CCc1nn(C)c(F)c1C(=O)N1CCCCC1CCc1ccccc1 (centres unmarked) [Example 176]	95
CCC(c1ccccc1Cl)C1CCCCN1C(=S)c1c(C(F)F)nn(C)c1F (centres unmarked) [Example 165]	100
Cc1nn(C)c(F)c1C(=O)N1CCCCC1c1ccc(Cl)cc1Cl (centres unmarked) [Example 76]	100
CCc1nn(C)c(F)c1C(=O)N1CCCCC1c1ccccc1Br (centres unmarked) [Example 87]	100
Cc1nn(C)c(F)c1C(=O)N1CCCCC1c1cccc(Cl)c1 (centres unmarked) [Example 44]	100
CCc1nn(C)c(F)c1C(=O)N1CCCCC1c1ccccc1Cl (centres unmarked) [Example 37]	95
Cc1nn(C)c(F)c1C(=O)N1CCCCC1c1ccc(Cl)cc1 (centres unmarked) [Example 51]	100
Cc1cc(C(=O)N2CCCCC2c2ccccc2Br)c(C)o1 (centres unmarked) [Example 86]	90
Cn1nc(C(F)F)c(C(=S)N2CCCCC2c2cccc(Cl)c2)c1F (centres unmarked) [Example 49]	100

test system: Alternaria solani; assay: In vivo preventive test on Alternaria solani (tomato); details: 500 ppm of active ingredient, evaluated 7 days after inoculation
Description: Solvent: 49 parts by weight of N,N-dimethylformamide Emulsifier: 1 part by weight of Alkylarylpolyglycolether To produce a suitable preparation of active compound, 1 part by weight of active compound is mixed with the stated amounts of solvent and emulsifier, and the concentrate is diluted with water to the desired concentration. To test for preventive activity, young plants are sprayed with the preparation of active compound at the stated rate of application. One day after this treatment, the plants are inoculated with an aqueous spore suspension of Alternaria solani. The plants remain for one day in an incubation cabinet at approximately 22° C. and a relative atmospheric humidity of 100%. Then the plants are placed in an incubation cabinet at approximately 20° C. and a relative atmospheric humidity of 96%. The test is evaluated 7 days after the inoculation. 0% means an efficacy which corresponds to that of the untreated control while an efficacy of 100% means that no disease is observed.

Compound	Efficacy [%]
Cc1nn(C)c(F)c1C(=O)N1CCCCC1c1ccccc1Br (centres unmarked) [Example 88]	95
Cc1nn(C)c(F)c1C(=O)N1CCCCC1c1cc(Cl)ccc1Cl (centres unmarked) [Example 83]	95
CCc1nn(C)c(F)c1C(=O)N1CCCCC1CCc1ccccc1 (centres unmarked) [Example 176]	90
CCC(c1ccccc1Cl)C1CCCCN1C(=S)c1c(C(F)F)nn(C)c1F (centres unmarked) [Example 165]	90
Cc1nn(C)c(F)c1C(=O)N1CCCCC1c1ccc(Cl)cc1Cl (centres unmarked) [Example 76]	90
CCc1nn(C)c(F)c1C(=O)N1CCCCC1c1ccccc1Br (centres unmarked) [Example 87]	95
Cc1nn(C)c(F)c1C(=O)N1CCCCC1c1cccc(Cl)c1 (centres unmarked) [Example 44]	95
CCc1nn(C)c(F)c1C(=O)N1CCCCC1c1ccccc1Cl (centres unmarked) [Example 37]	95
Cc1nn(C)c(F)c1C(=O)N1CCCCC1c1ccc(Cl)cc1 (centres unmarked) [Example 51]	95
Cc1cc(C(=O)N2CCCCC2c2ccccc2Br)c(C)o1 (centres unmarked) [Example 86]	90
Cn1nc(C(F)F)c(C(=S)N2CCCCC2c2cccc(Cl)c2)c1F (centres unmarked) [Example 49]	100

test system: Septoria tritici; assay: In vivo preventive test on Septoria tritici (wheat); details: 500 ppm of active ingredient, evaluated 21 days after inoculation
Description: Solvent: 49 parts by weight of N,N-dimethylacetamide Emulsifier: 1 part by weight of alkylaryl polyglycol ether To produce a suitable preparation of active compound, 1 part by weight of active compound or active compound combination is mixed with the stated amounts of solvent and emulsifier, and the concentrate is diluted with water to the desired concentration. To test for preventive activity, young plants are sprayed with the preparation of active compound or active compound combination at the stated rate of application. After the spray coating has been dried, the plants are sprayed with a spore suspension of Septoria tritici. The plants remain for 48 hours in an incubation cabinet at approximately 20° C. and a relative atmospheric humidity of approximately 100% and afterwards for 60 hours at approximately 15° C. in a translucent incubation cabinet at a relative atmospheric humidity of approximately 100%. The plants are placed in the greenhouse at a temperature of approximately 15° C. and a relative atmospheric humidity of approximately 80%. The test is evaluated 21 days after the inoculation. 0% means an efficacy which corresponds to that of the untreated control, while an efficacy of 100% means that no disease is observed.

Compound	Efficacy [%]
Cc1nn(C)c(F)c1C(=O)N1CCCCC1c1ccccc1Br (centres unmarked) [Example 88]	89
Cc1nn(C)c(F)c1C(=O)N1CCCCC1c1cc(Cl)ccc1Cl (centres unmarked) [Example 83]	80
CCc1nn(C)c(F)c1C(=O)N1CCCCC1CCc1ccccc1 (centres unmarked) [Example 176]	70
Cc1nn(C)c(F)c1C(=O)N1CCCCC1c1ccc(Cl)cc1Cl (centres unmarked) [Example 76]	100
CCc1nn(C)c(F)c1C(=O)N1CCCCC1c1ccccc1Br (centres unmarked) [Example 87]	89
Cc1nn(C)c(F)c1C(=O)N1CCCCC1c1cccc(Cl)c1 (centres unmarked) [Example 44]	90
CCc1nn(C)c(F)c1C(=O)N1CCCCC1c1ccccc1Cl (centres unmarked) [Example 37]	80
Cc1nn(C)c(F)c1C(=O)N1CCCCC1c1ccc(Cl)cc1 (centres unmarked) [Example 51]	100
Cc1cc(C(=O)N2CCCCC2c2ccccc2Br)c(C)o1 (centres unmarked) [Example 86]	78

test system: Uromyces appendiculatus; assay: In vivo preventive test on Uromyces appendiculatus (bean rust); details: 100 ppm of active ingredient, evaluated 10 days after inoculation
Description: as §1, with “spore” for “conidia”, “bean rust (Uromyces appendiculatus)” for “apple scab (Venturia inaequalis)”

Compound	Efficacy [%]
CCC(c1ccccc1Cl)C1CCCCN1C(=S)c1c(C(F)F)nn(C)c1F (centres unmarked) [Example 165]	73
